The source of these data is patent US6187754A, “Sialyl-Lewisa and sialyl-Lewisx epitode analogues” (GlycoTech Corp., priority 1996, dated 2001).

A short description of data set [1]: Remark on oxidation sensitivity in NMR characterisation. Format: physicochemical. The following applies: no long-term 13C-NMR measurement.
Data set [2] in a line: Remark on solubility in NMR characterisation. The following applies: CD3OD-D2O-CDCl3 (NMR solvent); no 13C NMR. It counts as physicochemical.

Take `COC(=O)CCCCCCCCO[C@@H]1O[C@H](CO)[C@@H](O)[C@H](O[C@@H]2O[C@H](CO)[C@H](O)[C@H](O[C@]3(C(=O)O)C[C@H](O)[C@@H](NC(C)=O)[C@H]([C@H](O)[C@H](O)CO)O3)[C@H]2O)[C@H]1NC(=O)c1ccc(O)c(O)c1` [(73)]: in data set [1], the “sensitivity to oxidation in organic solvents” value is “sensitivity of the compound to oxidation in organic solvents”.
Consider `COC(=O)CCCCCCCCO[C@@H]1O[C@H](CO)[C@@H](O[C@@H]2O[C@H](CO)[C@H](O)[C@H](O[C@]3(C(=O)O)C[C@H](O)[C@@H](NC(C)=O)[C@H]([C@H](O)[C@H](O)CO)O3)[C@H]2O)[C@H](O)[C@H]1NC(=O)c1cnc2nc(N)nc(O)c2n1` [(59)], for which the solubility entry in data set [2] is given as “poor solubility”.
